This is an account of results in ChEMBL document CHEMBL5528053, “Discovery of Novel Isoquinoline Analogues as Dual Tubulin Polymerization/V-ATPase Inhibitors with Immunogenic Cell Death Induction” (J Med Chem, 2024).

Activity calls are given as the source filed them. No cut-off for these calls is given here.

The subject of one series is A549. The series is described as follows: Antiproliferative activity against human A549 cells assessed as inhibition of cell growth after 72 hrs by MTT assay. It is filed as functional, cell-based. As to conditions: A549, 72 h.
The test system of another series is DU-145. The series is described as follows: Antiproliferative activity against human DU-145 cells assessed as inhibition of cell growth after 72 hrs by MTT assay. The note with it: DU-145, 72 h. It is filed as functional, cell-based. A general note: Tetrazolium assays rely on reduction of a dye to a coloured formazan, in cell work by metabolically active cells.

Series [1] has as its system PC-3. Kind of series: Antiproliferative activity against human PC-3 cells assessed as inhibition of cell growth after 72 hrs by MTT assay. It is filed as functional, cell-based. As to conditions: PC-3, 72 h.
In the next series the test system is MDA-MB-231. The series is described as follows: Antiproliferative activity against human MDA-MB-231 cells assessed as inhibition of cell growth after 72 hrs by MTT assay. The note with it: MDA-MB-231, 72 h. The class given is functional, cell-based.
Series [2] has as its system PC-3. Kind of series: Inhibition of autophagy in human PC-3 cells assessed as increase in number of autophagosomes at 50 uM measured after 3 hrs by immunofluorescence imaging based analysis. The class given is functional, cell-based.
Series [3] in a line: Antitumor activity against mouse RM1 cells xenografted in immunocompetent […] mouse model assessed as tumor growth inhibition at 5 mg/kg, iv measured every two days for 14 days relative to control. The class given is functional. As to conditions: RM1, 336 h, time 14 day, read-out: TGI.
A short description of series [4]: Toxicity in ICR mouse assessed as bone marrow suppression by measuring WBC level at 5 mg/kg, ip measured for 14 days. The class given is organism-based. The note with it: in vivo, 336 h, time 14 day.
The nature of series [5]: Toxicity in ICR mouse assessed as bone marrow suppression by measuring RBC level at 5 mg/kg, ip measured for 14 days. The class given is organism-based, Erythrocyte. As to conditions: in vivo, 336 h, time 14 day.
Series [6] in a line: Toxicity in ICR mouse assessed as bone marrow suppression by measuring hemoglobin count at 5 mg/kg, ip measured for 14 days. The class given is organism-based. The note with it: in vivo, 336 h, time 14 day.
Series [7] is described as follows: Toxicity in ICR mouse assessed as decrease in lymphocytes at 5 mg/kg, ip measured for 14 days. As to conditions: in vivo, 336 h, time 14 day. It is filed as organism-based.
A short description of series [8]: Toxicity in ICR mouse assessed as effect on ALT level at 5 mg/kg, ip measured for 14 days. The class given is organism-based. As to conditions: in vivo, 336 h, time 14 day.
Series [9] in a line: Antitumor activity against mouse RM1 cells homografted in C57BL/6 mouse model assessed as tumor growth inhibition at 5 mg/kg, iv administered every two days for 14 days by vernier caliper based analysis relative to control. The note with it: RM1, 336 h, time 14 day, read-out: TGI. It is filed as functional.
Series [10] is described as follows: Antitumor immunity against mouse RM1 cells homografted in C57BL/6 mouse model assessed as increase in tumor infiltrating lymphocytes at 5 mg/kg, iv administered every two days for 14 days by flow cytometry analysis (reference value: 5.26%). The class given is functional. As to conditions: time 14 day. In general terms: A flow cytometer gives signals particle by particle.

The nature of series [11]: Antitumor immunity against mouse RM1 cells homografted in C57BL/6 mouse model assessed as increase in tumor infiltrating CD3+CD8+T cells (CTLs) at 5 mg/kg, iv administered every two days for 14 days by flow cytometry analysis (reference value: 0.89%). It is filed as functional. The note with it: time 14 day.
A short description of series [12]: Antitumor immunity against mouse RM1 cells homografted in C57BL/6 mouse model assessed as increase in tumor infiltrating helper T lymphocytes at 5 mg/kg, iv administered every two days for 14 days by flow cytometry analysis (reference value: 6.59%). As to conditions: time 14 day. It is filed as functional.
Series [13] concerns RM1. Kind of series: Antitumor immunity against mouse RM1 cells homografted in C57BL/6 mouse model assessed as increase in tumor infiltrating CD3+CD8+T cells (CTLs) in spleen at 5 mg/kg, iv administered every two days for 14 days by flow cytometry analysis. It is filed as functional, organism-based. As to conditions: time 14.0 day.
For series [14], the system named is RM1. Kind of series: Antitumor immunity against mouse RM1 cells homografted in C57BL/6 mouse model assessed as increase in tumor infiltrating helper T lymphocytes in spleen at 5 mg/kg, iv administered every two days for 14 days by flow cytometry analysis. As to conditions: time 14.0 day. The class given is functional, organism-based.
Series [15] deals with RM1. Kind of series: Antitumor immunity against mouse RM1 cells homografted in C57BL/6 mouse model assessed as increase in activation of tumor infiltrating lymphocytes in spleen at 5 mg/kg, iv administered every two days for 14 days by flow cytometry analysis. The note with it: time 14.0 day. The class given is functional, organism-based.
The nature of series [16]: Anticancer activity against mouse RM1 cells assessed as increase in mean fluorescence intensity at 2 nM measured after 24 hrs by flow cytometry analysis (reference value: 7.40+/-3.96 ). The class given is functional.

What is called IC50 is the concentration that gives 50% inhibition. As to `COc1cc(-c2nc(C(N)=O)cc3cc4c(cc23)OCCO4)cc2c1OCCO2`, the IC50 in the series on A549 turned out to be 1850 nM; with DU-145 it was 1560 nM; in the series on PC-3 [1] it was 1350 nM; in the series on MDA-MB-231, 750 nM.

As for `COC(=O)c1cc2cc3c(cc2c(-c2cc(OC)c(OC)c(OC)c2)n1)OCCO3`, the IC50 with A549 amounted to 1530 nM; in the series on DU-145 it was 2100 nM; in the series with PC-3 [1] it was 1570 nM; with MDA-MB-231, 3210 nM.

With `COc1cc(-c2nc(CO)cc3cc4c(cc23)OCCO4)cc(OC)c1OC`, the IC50 in the series on A549 is 1260 nM; with DU-145, 1460 nM; with PC-3 [1] it was 1630 nM; in the series with MDA-MB-231 it was 1350 nM.

As to `COc1cc(-c2nc(C(N)=O)cc3cc4c(cc23)OCCO4)cc(I)c1OC`, the IC50 in the series on A549 stood at 180 nM; with DU-145, 300 nM; in the series with PC-3 [1], 170 nM; in the series on MDA-MB-231, 300 nM.

On to `COc1cc(-c2nc(C(=O)NO)cc3cc4c(cc23)OCCO4)cc(OC)c1OC`, for which the IC50 in the series on A549 is 1750 nM; in the series on DU-145, 1940 nM; in the series on PC-3 [1] it was 1480 nM; in the series with MDA-MB-231, 1580 nM.

For `CCOc1cc(-c2nc(C(N)=O)cc3cc4c(cc23)OCCO4)cc(OC)c1OC`, the IC50 with A549 stood at 370 nM; with DU-145 it was 540 nM; in the series with PC-3 [1] it was 390 nM; in the series on MDA-MB-231, 480 nM.

`CCOc1ccc2c(-c3cc(OC)c(OC)c(OC)c3)nc(C(N)=O)cc2c1`: the IC50 with A549, in the series with DU-145, in the series with PC-3 [1] and with MDA-MB-231 was more than 10000 nM in each case.

Consider `COc1cc2c(O)c3c(c(-c4ccc5c(c4)OCO5)c2cc1OC)C(=O)OC3` [DIPHYLLIN], for which the IC50 with A549 came out at 890 nM; in the series with DU-145, 380 nM; with PC-3 [1], 210 nM; with MDA-MB-231, 2270 nM.

Take `COc1cc2c(c(OC)c1OC)-c1ccc(OC)c(=O)cc1[C@@H](NC(C)=O)CC2` [COLCHICINE]: the IC50 in the series on DU-145 is 70 nM; with PC-3 [1], 50 nM; with MDA-MB-231 it was 120 nM.

`COc1cc(-c2nc(C(N)=O)cc3cc4c(cc23)OCCO4)cc(Cl)c1OC`: the concentration for half-maximal inhibition (IC50) in the series on A549 was 160 nM; with DU-145 it was 270 nM; with PC-3 [1], 200 nM; with MDA-MB-231 it was 210 nM.

Take `COc1cc(-c2nc(C(N)=O)cc3cc4c(cc23)OCCO4)cc2c1OCCCO2`: the 50% inhibitory concentration (IC50) was 2950 nM in the series on A549, 8350 nM in the series with DU-145, 3340 nM with PC-3 [1] and more than 10000 nM with MDA-MB-231.

With `COc1cc(-c2nc(C(N)=O)cc3cc(OCCCN4CCOCC4)ccc23)cc(OC)c1OC`, the IC50 in the series with A549, with DU-145, in the series on PC-3 [1] and in the series on MDA-MB-231 was more than 10000 nM in each case.

Turning to `COc1cc(-c2nc(C(N)=O)cc3cc4c(cc23)OCCO4)cc2c1OCO2`, the IC50 came to 2010 nM in the series with A549, 750 nM in the series on DU-145, 1120 nM in the series with PC-3 [1] and 1310 nM in the series with MDA-MB-231.

With `COc1ccc2c(-c3cc(OC)c(OC)c(OC)c3)nc(C(N)=O)cc2c1`, the IC50 with A549, in the series on DU-145, in the series on PC-3 [1] and in the series on MDA-MB-231 was more than 10000 nM in each case.

Regarding `COc1c(Cl)cc(-c2nc(C(N)=O)cc3cc4c(cc23)OCCO4)cc1Cl`, the IC50 with A549 came out at 250 nM; with DU-145, 490 nM; in the series on PC-3 [1] it was 640 nM; in the series on MDA-MB-231, 870 nM.

Regarding `CCCOc1cc(-c2nc(C(N)=O)cc3cc4c(cc23)OCCO4)cc(OC)c1OC`, the IC50 in the series on A549 is 5560 nM; in the series on DU-145, more than 10000 nM; with PC-3 [1], more than 10000 nM; in the series with MDA-MB-231 it was more than 10000 nM.

Consider `CCCOc1c(OC)cc(-c2nc(C(N)=O)cc3cc4c(cc23)OCCO4)cc1OC`, for which the IC50 in the series with A549 was 1390 nM; in the series on DU-145 it was 1640 nM; with PC-3 [1], 1990 nM; in the series with MDA-MB-231, 2420 nM.

Take `CCN(CC)CCCC(C)Nc1ccnc2cc(Cl)ccc12` (stereo unspecified): the inhibition entry in the series on PC-3 [2] is “Active”.

For `COc1cc(-c2nc(C(N)=O)cc3cc4c(cc23)OCCO4)cc(OC)c1OC`, the IC50 came to 840 nM in the series on A549, 1050 nM in the series on DU-145, 1180 nM with PC-3 [1] and 1270 nM in the series with MDA-MB-231.

On to `CCOc1c(OC)cc(-c2nc(C(N)=O)cc3cc4c(cc23)OCCO4)cc1OC`, for which the IC50 in the series with A549, in the series on DU-145, in the series on PC-3 [1] and in the series with MDA-MB-231 was more than 10000 nM each time.

For `CC(=O)O[C@H]1C(=O)[C@@]2(C)[C@H]([C@H](OC(=O)c3ccccc3)[C@]3(O)C[C@H](OC(=O)[C@H](O)[C@@H](NC(=O)c4ccccc4)c4ccccc4)C(C)=C1C3(C)C)[C@]1(OC(C)=O)CO[C@@H]1C[C@@H]2O` [PACLITAXEL], the inhibition in vivo at 5 mg/kg was determined as 55.5% in series [3] and 54.6% in series [9]. Besides, the Activity result in series [4] is recorded as “Toxic”; in series [5], “Toxic”; in series [6], “Toxic”; in series [7] it was “Toxic”; in [8] it was “Toxic”; in series [10] it was 5.68%. Further, the figures for the Activity in [11] and in series [12] were 1.16% and 9.81%, respectively. Also, the result in the series on RM1 [13] and in the series with RM1 [14] was inactive. For the same compound, the outcome with RM1 [15] was Active.

As to `CCCOc1ccc2c(-c3cc(OC)c(OC)c(OC)c3)nc(C(N)=O)cc2c1`, the IC50 in the series with A549, with DU-145, with PC-3 [1] and in the series on MDA-MB-231 was more than 10000 nM each time.

As to `COc1cc(-c2nc(C(=O)O)cc3cc4c(cc23)OCCO4)cc(OC)c1OC`, the IC50 with A549, with DU-145, with PC-3 [1] and in the series on MDA-MB-231 was more than 10000 nM in each case.

For `COc1cccc2c1C(=O)c1c(O)c3c(c(O)c1C2=O)C[C@@](O)(C(=O)CO)C[C@@H]3O[C@H]1C[C@H](N)[C@H](O)[C@H](C)O1` [DOXORUBICIN], the Flu intensity in [16] is reported as 184.3.

`COc1c(Br)cc(-c2nc(C(N)=O)cc3cc4c(cc23)OCCO4)cc1Br`: the IC50 was 200 nM with A549, 320 nM in the series on DU-145, 270 nM with PC-3 [1] and 400 nM in the series with MDA-MB-231.

For the compound `COc1c(I)cc(-c2nc(C(N)=O)cc3cc4c(cc23)OCCO4)cc1I`, the IC50 with A549 was determined as 2150 nM; in the series on DU-145, 3220 nM; in the series on PC-3 [1] it was 1980 nM; in the series with MDA-MB-231, 730 nM.
